These results are taken from US5260276A, “Linear and monocyclic endothelin antagonists” (Warner-Lambert Company, priority 1991, dated 1993).

The IC50 is the midpoint of a concentration-inhibition curve.

Assay [1] has as its target endothelin receptor ([125I]-ET-1 binding), rat heart ventricle. The experiment in a line: Inhibition of [125I]-ET-1 binding in a receptor assay, rat heart ventricle. The settings on record: [125I]-ET-1, rat heart ventricle 10 μg, 37° C., 2 hours. As for the experimental part: The compounds of Formula I are valuable antagonists of endothelin. […] Thus, the compounds of Formula I were tested for their ability to inhibit [^125 I]-ET-1([^125 I]-Endothelin-1) binding in a receptor assay. The binding of the compounds of Formula I is determined by incubation (37° C., 2 hours) of a compound of Formula I with [^125 I]-ET-1 and the tissue (rat heart ventricle (10 μg)) in 50 mM Tris(hydroxymethyl)aminomethane hydrochloride (Tris-HCl) (pH 7.4), 5 mM ethylenediamine tetraacetic acid (EDTA), 2 mM ethylene glycol bis(β-aminoethyl ether)N,N,N',N'-tetraacetic acid (EGTA), 100 μM phenylmethylsulfonyl fluoride (PMSF), and 100 μM bacitracin containing protease inhibitors (total volume of 0.5 mL). IC50 values are calculated by weighing nonlinear regression curve-fitting to the mass-action (Langmuir) equation. The functional activity of compounds of Formula I is determined in Rat-1 cells by measuring intracellular levels of second messengers. Thus, cells are prelabeled with [^3 H]-inositol and endothelin-stimulated accumulation of total [^3 H]-inositol phosphates in the presence of Li^+ is monitored using anion exchange chromatography as described by Muldoon, L. L., et al, Journal of Biological Chemistry, Volume 264, pages 8529-8536 (1989) and Dudley, D. T., et al, Molecular Pharmacology, Volume 38, pages 370-377 (1990). Antagonist activity is assessed as the ability of added compounds to reduce endothelin stimulated inositol phosphate accumulation. The data in the table show the endothelin antagonist activity of representative compounds of Formula I.

Assay [2] has as its system ET receptor, selected tissues. The settings on record: relative to ET-1; cited from earlier work.

Where a SMILES comes first, the peptide text is derived from it. Bridges are numbered along the chain shown (N, C = ends). Where no end group is shown, it is not given here. [ ]: non-standard residue; d: D form. Ava = NCCCCC(=O)O

Consider `CC[C@H](C)[C@H](NC(=O)[C@H](CC(=O)O)NC(=O)[C@H](CC(C)C)NC(=O)[C@H](Cc1c[nH]cn1)NC(=O)[C@@H]1CSSC[C@H](N)C(=O)N[C@@H](CO)C(=O)NCCCCC(=O)N[C@@H](C(C)C)C(=O)N[C@@H](Cc2ccc(O)cc2)C(=O)N[C@@H](Cc2ccccc2)C(=O)N1)C(=O)N[C@H](C(=O)N[C@@H](Cc1c[nH]c2ccccc12)C(=O)O)[C@@H](C)CC` [Example 5] (H-CS[Ava]VYFCHLDIIW-OH; disulfide 1-7; N-terminus and C-terminus assumed), for which the IC50 in assay [1] was 1.8 µM.
As to “ET[1-20]: endothelin-1 fragment 1-20, lacking the C-terminal amino acid Trp-21 (CSCSSLMDKECVYFCHLDII; ends and bridges not checked; cysteine pairing not given here; UniProt P05305 53-72, looked up, fragment)”, in assay [2], the “fold less functional activity” value is listed as “approximately 1000 fold”.
`CC[C@@H](C)[C@@H](NC(=O)[C@@H](NC(=O)[C@H](CC(=O)O)NC(=O)[C@H](CC(C)C)NC(=O)[C@H](Cc1c[nH]cn1)NC(=O)[C@@H]1CSSC[C@H](N)C(=O)N[C@@H](CO)C(=O)N[C@@H](CO)C(=O)N[C@@H](CO)C(=O)N[C@@H](C(C)C)C(=O)N[C@@H](Cc2ccc(O)cc2)C(=O)N[C@@H](Cc2ccccc2)C(=O)N1)[C@@H](C)CC)C(=O)N[C@@H](Cc1c[nH]c2ccccc12)C(=O)O` [Example 14] (H-CSSSVYFCHLDI[dI]W-OH; disulfide 1-8; N-terminus assumed): the IC50 in assay [1] amounted to 2.6 µM.
Still for that read-out and setting: as for `CC[C@H](C)[C@H](NC(=O)[C@H](CC(=O)O)NC(=O)[C@H](CC(C)C)NC(=O)[C@H](Cc1c[nH]cn1)NC(=O)[C@@H]1CSSC[C@H](N)C(=O)N[C@@H](CO)C(=O)N[C@@H](CC(=O)O)C(=O)N[C@@H](CC(C)C)C(=O)N[C@@H](CCC(=O)O)C(=O)N[C@@H](C(C)C)C(=O)N[C@@H](Cc2ccc(O)cc2)C(=O)N[C@@H](Cc2ccccc2)C(=O)N1)C(=O)N[C@H](C(=O)N[C@@H](Cc1c[nH]c2ccccc12)C(=O)O)[C@@H](C)CC` [Example 10] (H-CSDLEVYFCHLDIIW-OH; disulfide 1-9), the figure is 3.2 µM.
